Test results reported in US11131674B2, “Microarray compositions and methods of their use” (ADEPTRIX CORP., priority 2013, dated 2021).

Legend:
MCF-7 cell line cells [1] = assay: Whole cell MALDI TOF MS imaging of live cell microarray reacted with apoptosis-inducing compounds; assay type: cell-based, human; settings: MCF-7 cells, 24 hours; etoposide 1 mM, camptothecin 10 μM, andrographolide 100 μM, 500 μM and 1 mM; FIG. 39E
Description: The live cell microarray was fabricated as follows: a sterile 12-well silicone gasket was affixed to a top surface of a sterile APEX™ glass microwell plate, as schematically depicted in FIG. 15A and 1×DMEM cell culture medium supplemented with 10% FBS and 1% of Penicillin/Streptomycin was dispensed into each well of the fabricated 12-chamber cell culture device. Several hundred of MCF-7 cell line cells were seeded into each of the 12 wells and the cells were grown to […] density on the microwell plate within 48 hrs using a standard cell culture protocol. The fabricated live cell microarray thus comprised 12 reactive sites defined by the dimensions of the silicone gasket, each reactive site measuring approximately 7.5 mm×7.5 mm and containing approximately 5×10^5 live cells.
The live cell microarray fabricated as described in the previous Example was utilized to measure response of the MCF-7 cell line cells to several apoptosis-inducing compounds, which included etoposide, camptothecin and andrographolide. In addition, the live cell microarray was utilized to measure response of the MCF-7 cells to the same compound (andrographolide) provided in three different concentrations.
Stock solutions of the three compounds listed above were prepared in DMSO and stored at 4° C. or at −20° C. The compounds were diluted with the DMEM cell culture medium to the final concentrations of 1 mM (etoposide), 10 μM (camptothecin) and 100 μM, 500 μM and 1 mM (andrographolide) immediately before use. The original cell growth medium within the individual wells of the silicone gasket was removed by pipetting and replaced with approximately 250 μL of a cell growth medium supplemented with a specific compound. FIG. 39A schematically depicts a layout of the cell microarray. […]
The reacted cell microarray was measured by MALDI TOF MS in the linear mid-mass positive mode as described previously. […]

MCF-7 cell line cells [2] = assay: Optical imaging of cell density and morphology on composite microbead-microwell live cell microarray; assay type: cell-based, human; settings: MCF-7 cells, 24 hours, optical microscope, FIG. 41A/41B
Source text: In this Example, the release of etoposide from the beads into the cell culture medium occurred primarily via diffusion mechanism, although other methods, such as photorelease of active compounds from individual beads may be also utilized due to the fact that the solid support used for the microarray fabrication is sufficiently transparent in the UV-visible range.
Optical imaging: the multi-well gasket was separated from the microwell array plate, the surface of the plate rinsed with 1×PBS buffer and the microwell plate was imaged using an optical microscope to determine the cell density and cell morphology. A representative image acquired from an area of the microwell plate, which contained the cells exposed to the drug-free DMEM medium, is shown in FIG. 41A. A representative image acquired from an area of the microwell plate, which contained the cells exposed to the etoposide-containing DMEM medium, is shown in FIG. 41B.

MCF-7 cells = assay: Difference whole cell mass spectrometry for detection of spectral changes due to apoptosis; assay type: cell-based, human; settings: 24 hrs incubation, FIG. 35
Description: The human breast cancer cell line MCF-7 cells were grown in Gibco® DMEM medium on a 6-well clear polystyrene cell culture plate (BD Falcon). The cells were grown according to the manufacturer's protocol to approximately 75% confluency. At this point several apoptosis-inducing compounds were added to the individual wells and the cells were further incubated for 24 hrs. Both live adherent cells and dead cells detached from the surface were collected from the individual wells of the cell culture plate and the cell viability count was performed on Countless® automated cell counter (Life Technologies) per manufacturer's protocol.
The cells for WCMS analysis were prepared as described in the previous examples. The cell concentration was approximately 1,000 cells per μL.
Whole cell MALDI TOF MS spectra were acquired from the control (untreated) and treated cell populations using instrument parameters described in the previous examples. […] The bottom spectrum represents a difference mass spectrum produced by subtracting the control spectrum from the Etoposide-treated spectrum.

[3] = Cell counting (Trypan blue, automated cell counter) on composite microbead-microwell live cell microarray; settings: human, MCF-7 cells on a microbead-microwell array plate
MCF-7 cell line cells [4] = assay: as above; settings: MCF-7 cells, 24 hours, cell growth medium supplemented with etoposide released from the ion exchange beads; Trypan blue

| SMILES | intensity of peaks in the 7,891-7,977 m/z spectral region compared to untreated cells (MCF-7 cell line cells [1]) | density of adherent cells, drug-free vs etoposide-containing DMEM medium (MCF-7 cell line cells [2]) | difference mass spectrum, treated minus control (MCF-7 cells) | viability at 24 h [3] [%] | live cells (MCF-7 cell line cells [4]) | total cells (MCF-7 cell line cells [4]) |
| --- | --- | --- | --- | --- | --- | --- |
| C=C1CC[C@@H]2[C@](C)(CO)[C@H](O)CC[C@@]2(C)[C@@H]1C/C=C1/C(=O)OC[C@H]1O [andrographolide] | significantly greater intensity | – | – | – | – | – |
| CC[C@@]1(O)C(=O)OCc2c1cc1n(c2=O)Cc2cc3ccccc3nc2-1 [camptothecin] | significantly greater intensity | – | – | – | – | – |
| COc1cc([C@@H]2c3cc4c(cc3[C@@H](O[C@@H]3O[C@@H]5CO[C@@H](C)O[C@H]5[C@H](O)[C@H]3O)[C@H]3COC(=O)[C@H]23)OCO4)cc(OC)c1O [etoposide] | significantly greater intensity | significantly greater density of adherent cells was observed for the cells grown in the drug-free medium | reveals multiple spectral features | 44 | 2.1×10^5 | 4.7×10^5 |
